Test results as given in patent US11155550B2, “Histone deacetylase inhibitors and methods of use thereof” (Reaction Biology Corp., priority 2018, dated 2021).

Assays:
Human HDAC1 = target: T1, Human HDAC1 (Homo sapiens, UniProt Q13547); experiment: Biochemical HDAC enzymatic assay, HDAC1; settings: incubation time 120 min
T1 construct: full-length with a C-terminal His-tag and a C-terminal FLAG-tag; His-tag (C); FLAG-tag (C); made in house; host or cells: baculovirus expression system
Method: (§1) Incubation time for HDAC1/2 is 120 min, and 10 min for other HDACs.
Human HDAC1 (GenBank Accession No. NM_004964), full-length with a C-terminal His-tag and a C-terminal FLAG-tag, MW=56 kDa, was expressed in a baculovirus expression system.
(§2) • I. Compound handling: Testing compounds were dissolved in 100% DMSO to a specific concentration. The serial dilution was conducted by epMotion 5070 in DMSO. • II. HDAC reaction buffer: 50 mM Tris-HCl, pH8.0, 137 mM NaCl, 2.7 mM KCl, and 1 mM MgCl2, Added fresh: 1 mg/ml BSA, 1% DMSO. • III. Substrate: Fluorogenic HDAC General Substrate for HDAC1, 2, 3, 6, 10, 11 ans Sirt1, 2 and 3: Arg-His-Lys-Lys(Ac); HDAC8 only substrate: Arg-His-Lys(Ac)-Lys(Ac); Class2A Substrate (HDAC4, 5, 7 and 9): Acetyl-Lys(trifluoroacetyl)-AMC; Sirt5 substrate: Ac-Lys(succinyl)-AMC. • IV. General Reaction Procedure: (Standard IC50 determination) • a. Delivered 2× enzyme in wells of reaction plate except No Enzyme (No En) control wells. Add buffer in No En wells. • b. Delivered compounds in 100% DMSO into the enzyme mixture by Acoustic technology (Echo550; nanoliter range). Spin down and pre-incubation. • c. Delivered 2× Substrate Mixture (Fluorogenic HDAC Substrate and co-factor (500 μM of Nicotinamide adenine dinucleotide (NAD^+) in all Sirt assay) in all reaction wells to initiate the reaction. Spin and shake. • d. Incubated for 1-2 hr. at 30° C. with seal. • e. Added Developer with Trichostatin A (or TMP269 or NAD^+) to stop the reaction and to generate fluorescent color. • f. Fluorescence was read (excitatory, 360; emission, 460) using the EnVision Multilabel Plate Reader (Perkin Elmer) • g. Endpoint reading was taken for analysis after the development reaches plateau. • V. Data Analysis: The percentages of enzyme activity (relative to DMSO controls) and IC50 values were calculated using the GraphPad Prism 4 program based on a sigmoidal dose-response equation.
(§3) The inhibitory activities of HDAC of compounds of the invention were determined using biochemical HDAC assays. Compounds were tested at the indicated doses in the biochemical assays of HDAC1, HDAC2, HDAC3, HDAC4, HDAC5, HDAC6, HDAC7, HDAC8, HDAC9, HDAC10, or HDAC11 enzyme. The curve fit and IC50 values were calculated using the GraphPad Prism 4 program based on a sigmoidal dose-response equation.
as §2, with “[…]” for “μM”, “equation. […]” for “equation.”

Human HDAC2 = target: T2, Human HDAC2 (Homo sapiens, UniProt Q92769); experiment: Biochemical HDAC enzymatic assay, HDAC2; settings: incubation time 120 min
T2 construct: full-length with a C-terminal His-tag, MW=56 kDa; His-tag (C); made in house; host or cells: baculovirus expression system
T2 sequence (Q92769 whole entry): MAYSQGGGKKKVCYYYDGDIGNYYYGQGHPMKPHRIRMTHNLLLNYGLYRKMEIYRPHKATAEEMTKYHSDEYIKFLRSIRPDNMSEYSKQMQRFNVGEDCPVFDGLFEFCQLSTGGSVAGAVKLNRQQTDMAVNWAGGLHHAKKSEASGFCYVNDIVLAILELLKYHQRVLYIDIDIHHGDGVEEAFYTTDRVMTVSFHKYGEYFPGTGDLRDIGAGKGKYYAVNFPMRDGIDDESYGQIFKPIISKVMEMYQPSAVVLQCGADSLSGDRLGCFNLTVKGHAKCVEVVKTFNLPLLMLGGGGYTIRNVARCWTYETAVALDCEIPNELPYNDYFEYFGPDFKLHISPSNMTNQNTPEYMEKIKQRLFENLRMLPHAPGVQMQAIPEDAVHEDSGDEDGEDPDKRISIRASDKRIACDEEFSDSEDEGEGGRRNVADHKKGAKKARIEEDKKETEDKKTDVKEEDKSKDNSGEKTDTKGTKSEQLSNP
Method: as §1
Human HDAC2 (GenBank Accession No. NM_001527), full-length with a C-terminal His-tag, MW=56 kDa, was expressed in a baculovirus expression system.
as §2, §3
as §2, with “[…]” for “μM”, “equation. […]” for “equation.”

T1 sequence (Q13547 whole entry): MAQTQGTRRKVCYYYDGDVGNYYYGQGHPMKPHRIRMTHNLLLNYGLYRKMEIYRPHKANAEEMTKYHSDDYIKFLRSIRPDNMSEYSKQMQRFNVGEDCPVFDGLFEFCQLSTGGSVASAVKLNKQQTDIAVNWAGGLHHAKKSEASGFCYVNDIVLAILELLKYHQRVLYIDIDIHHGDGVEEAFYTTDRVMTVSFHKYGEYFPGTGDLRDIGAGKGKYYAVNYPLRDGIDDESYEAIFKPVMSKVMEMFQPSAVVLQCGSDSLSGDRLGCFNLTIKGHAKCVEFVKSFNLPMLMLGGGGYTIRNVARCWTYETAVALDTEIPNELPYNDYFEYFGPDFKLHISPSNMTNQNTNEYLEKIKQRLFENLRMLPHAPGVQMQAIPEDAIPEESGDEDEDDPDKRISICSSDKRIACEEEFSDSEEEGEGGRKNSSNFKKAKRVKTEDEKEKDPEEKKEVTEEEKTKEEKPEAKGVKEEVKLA

| Structure (SMILES) | IC50 (Human HDAC1; Table 2) [nM] | IC50 (Human HDAC2; Table 2) [nM] | IC50 (Human HDAC1; Table 1) [nM] | IC50 (Human HDAC2; Table 1) [nM] |
| --- | --- | --- | --- | --- |
| O=C(NO)c1ccc(CN2C(=O)c3ccccc3C23OCCO3)cc1 [Compound Example 8, N-hydroxy-4-((3-oxospiro[isoindoline-1,2′-[1,3]dioxolan]-2-yl)methyl)benzamide] | 8000 | > 10000 |  |  |
| O=C(NO)c1ccc(CN2C(=O)C3(CCOC3)c3ccccc32)cc1 (stereo not shown) [Compound Example 9] | 9100 | 17200 |  |  |
| O=C(NO)c1ccc(CN2C(=O)c3ccccc3C23CCNCC3)cc1 [Compound Example 10, N-hydroxy-4-((3-oxospiro[isoindoline-1,4′-piperidin]-2-yl)methyl)benzamide] | 6000 | > 10000 |  |  |
| CN(C)C(=O)N1CCC2(CC1)c1ccccc1C(=O)N2Cc1ccc(C(=O)NO)cc1 [Compound Example 11, 2-(4-(hydroxycarbamoyl)benzyl)-N,N-dimethyl-3-oxospiro[isoindoline-1,4′-piperidine]-1′-carboxamide] | > 10000 | > 10000 |  |  |
| O=C(NO)c1ccc(CN2C(=O)c3ccccc3C23CCN(C2CC2)CC3)cc1 [Compound Example 12, 4-((1′-cyclopropyl-3-oxospiro[isoindoline-1,4′-piperidin]-2-yl)methyl)-N-hydroxybenzamide] | > 10000 | > 10000 |  |  |

Next, values leading:

| IC50 (Human HDAC1; Table 2) [nM] | IC50 (Human HDAC2; Table 2) [nM] | IC50 (Human HDAC1; Table 1) [nM] | IC50 (Human HDAC2; Table 1) [nM] | Structure (SMILES) |
| --- | --- | --- | --- | --- |
|  |  | 6 | 60 | Nc1ccc(-c2cccs2)cc1NC(=O)c1ccc(CN2C(=O)CCCC23CNC3)cc1 [Example 1, N-(2-amino-5-(thiophen-2-yl)phenyl)-4-((6-oxo-2,5-diazaspiro[3.5]nonan-5-yl)methyl)benzamide] |
|  |  | 14 | 146 | Nc1ccc(-c2cccs2)cc1NC(=O)c1ccc(CN2C(=O)CCC23CCNCC3)cc1 [Example 2, N-(2-amino-5-(thiophen-2-yl)phenyl)-4-((2-oxo-1,8-diazaspiro[4.5]decan-1-yl)methyl)benzamide] |
|  |  | 20000 | 11800 | Nc1cc(F)ccc1NC(=O)c1ccc(CN2C(=O)CCCC23CNC3)cc1 [Example 3, N-(2-amino-4-fluorophenyl)-4-((6-oxo-2,5-diazaspiro[3.5]nonan-5-yl)methyl)benzamide] |
|  |  | 7 | 64 | CN1CCC2(CC1)CN(c1ccc(C(=O)Nc3cc(-c4cccs4)ccc3N)cn1)C(=O)O2 [Example 4, N-(2-amino-5-(thiophen-2-yl)phenyl)-6-(8-methyl-2-oxo-1-oxa-3,8-diazaspiro[4.5]decan-3-yl)nicotinamide] |
|  |  | 23 | 115 | Nc1ccc(-c2ccc(F)cc2)cc1NC(=O)c1ccc(N2CC3(CCOCC3)OC2=O)nc1 [Example 5, N-(4-amino-4′-fluoro-[1,1′-biphenyl]-3-yl)-6-(2-oxo-1,8-dioxa-3-azaspiro[4.5]decan-3-yl)nicotinamide] |
|  |  | 85 | 610 | Nc1ccc(-c2cccs2)cc1NC(=O)c1ccc(N2CC3(CCNCC3)CCC2=O)nc1 [Example 6, N-(2-amino-5-(thiophen-2-yl)phenyl)-6-(3-oxo-2,9-diazaspiro[5.5]undecan-2-yl)nicotinamide] |
